Experimental data published in patent US11466011B2, “Compounds and their use as inhibitors of N-myristoyl transferase” (Imperial College Innovations Limited, priority 2015, dated 2022).
Structures can show the parent of a compound that is named as a salt.

Key:
[1] = biological target: Leishmania donovani (Ld) N-myristoyl transferase (Leishmania donovani, UniProt D0AB09); assay: Fluorescence-based NMT assay (a), adapted version, LdNMT; type: biochemical
[2] = biological target: T1, Leishmania major (Lm) N-myristoyl transferase (Leishmania major, UniProt Q4Q5S8); assay: Fluorescence-based NMT assay (a), adapted version, LmNMT; type: biochemical
T1 sequence (Q4Q5S8 1-421): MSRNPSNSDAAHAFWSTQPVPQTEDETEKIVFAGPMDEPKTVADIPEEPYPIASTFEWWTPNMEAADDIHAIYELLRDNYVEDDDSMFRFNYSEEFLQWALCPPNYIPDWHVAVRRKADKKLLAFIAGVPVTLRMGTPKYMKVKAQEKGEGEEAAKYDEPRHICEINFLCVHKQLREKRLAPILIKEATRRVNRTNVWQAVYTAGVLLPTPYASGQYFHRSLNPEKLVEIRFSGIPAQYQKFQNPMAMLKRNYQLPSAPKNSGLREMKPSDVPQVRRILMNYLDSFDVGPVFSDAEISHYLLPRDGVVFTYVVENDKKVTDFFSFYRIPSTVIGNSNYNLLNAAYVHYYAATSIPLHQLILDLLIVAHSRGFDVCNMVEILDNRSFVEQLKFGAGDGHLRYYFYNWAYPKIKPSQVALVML

HeLa and/or BL-41 cells = assay: Metabolic activity assay (MTS assay) (d), HeLa and/or BL-41; type: cell-based; details: Homo sapiens, 72 h
Procedure: Example NMT inhibitors of the invention were tested for activity in an in vitro metabolic activity assay using human cell lines (HeLa and BL-41). Compounds having activity in inhibiting metabolic activity in the assay are expected to be useful as agents for preventing and/or treating cancer, by virtue of being inhibitors of human NMT1 and/or NMT2.
Hela cells were grown in DMEM media (supplemented with 10% FBS) and seeded in a 96-well plate 24 h prior to treatment. BL-41 cells were grown in RPMI-1640 media (supplemented with 10% FBS) and seeded directly before treatment. Cell suspensions were prepared by adjusting the cell density to the appropriate concentration (as stated in the table below) and 50 μL of the cell suspension was transferred to wells B-G in columns 2-11 of a 96-well plate.
100 μL of growth media containing 0.2% DMSO was added to wells B-G in columns 2 and 11 as positive controls and 100 μL of growth media containing Puromycin (3 μg/mL; final concentration in the plate 2 μg/mL) was added to wells B-G in column 3 as a negative control. 7 concentrations of inhibitor solution were prepared using example NMT inhibitors (same final percentage of DMSO, dilution factor=3 starting from 15 μM or 150 μM) and 100 μL of inhibitor solution was added to wells B-G in columns 4-10 (final concentration of example NMT inhibitor in the plate starting from 10 μM or 100 μM; total volume of the wells=150 μL).
After 72 h, 20 μL MTS reagent (Promega, prepared according to the supplier protocol) was added to each well of the 96-well plate. The plate was incubated at 37° C. (2 hours for HeLa cells and 4 hours for BL-41 cells) and absorbance was measured at 490 nm with a Spectra Max M2/M2e microplate reader. The average absorbance value of the negative control (Puromycin-treated cells) was subtracted from each value and the metabolic activity was calculated as a percentage relative to the positive control (DMSO-treated cells). EC50s were calculated using Grafit 7.0 (Erithacus Software Ltd, UK).

HeLa Ohio cells = assay: Cell viability of inhibitor-treated uninfected cells (assay (f)); details: MTS 2 days post-treatment
HRV16 [3] = assay: Rhinovirus production assay 2 (f), virus-induced cytopathic effect; type: cell-based, human HeLa Ohio cell line; details: 2 days post-infection, HeLa Ohio cells
Procedure: Examples 30, 35, 49 and 50 of the invention was tested for activity in a rhinovirus replication assay in the human HeLa Ohio cell line. Compounds having activity in inhibiting rhinovirus production in the assay are expected to be useful as agents for preventing and/or treating asthma or chronic obstructive pulmonary disease (COPD), by virtue of being inhibitors of human NMT1 and/or NMT2, which are thought to myristoylate rhinovirus capsid subunit VP4 and be essential for virus assembly. HeLa Ohio cells were grown in growth media (DMEM supplemented with 10% FBS, 1% Sodium Bicarbonate and 25 mM Hepes) and seeded 24 hours prior to infection in a 96-well plate at a cell density allowing to obtain 100% confluent cells (5.6×10^4 cells per well) the next day. Confluent cells were infected with HRV16 at an MOI of 0.05 in the presence of different concentrations of inhibitor, as indicated in the table below, each in duplicate. The virus stock (5.6×10^6 PFU/ml) was diluted in growth media to obtain a virus solution at 1.4×10^4 PFU/ml. This virus dilution was used to dilute the inhibitor by serial dilutions in order to obtain virus solutions with the inhibitor concentrations indicated in the table below. The DMSO control contained the same percentage of DMSO as in the solution with the highest concentration of inhibitor.

HRV16 [4] = assay: Rhinovirus production assay (e), virus titre (TCID50); type: cell-based, human HeLa Ohio cell line; details: Enterovirus
Procedure: Example 30 of the invention was tested for activity in an in vitro rhinovirus production assay using the human HeLa Ohio cell line. Compounds having activity in inhibiting rhinovirus production in the assay are expected to be useful as agents for preventing and/or treating asthma or chronic obstructive pulmonary disease (COPD), by virtue of being inhibitors of human NMT1 and/or NMT2, which are thought to myristoylate rhinovirus capsid subunit VP4 and be essential for virus assembly. Hela Ohio cells were grown in growth media (DMEM supplemented with 10% FBS, 1% Sodium Bicarbonate and 25 mM Hepes) and seeded 24 h prior to infection in a 12-well plate at a cell density allowing to obtain 100% confluent cells (5.95×10^5 cells per well) the next day. Confluent cells were treated with different concentrations of inhibitor, as indicated in the table below, each in triplicate. The Example 30 inhibitor solution was prepared by serial dilutions in growth media and the DMSO control contained the same percentage of DMSO as in the solution with the highest concentration of inhibitor. […] Cells were then infected with HRV16 at an MOI of 1 in the presence of the inhibitor. The virus stock (2.492×10^7 PFU/ml) was diluted in growth media to obtain a virus solution at 5.95×10^5 PFU/ml. This virus dilution was used to dilute the inhibitor as previously described in order to obtain virus solutions with the inhibitor concentrations indicated in the table below. The cell media was as replaced by 1 ml per well of virus+inhibitor solution and the plate was incubated for 1 h at room temperature to allow virus adsorption onto the cells. The cells were then washed with PBS and the media was replaced with 1 ml per well of growth media+inhibitor, prepared as previously described. […] The media and cells form each well were then transferred to 1.5 ml tubes and centrifuged for 1 min at 16000×g to remove cell debris. The virus titres from the cleared supernatants were determined by measuring the 50% Tissue Culture Infective Dose (TCID50). Each sample was diluted in a series of 10-fold dilutions in TCID50 media (DMEM supplemented with 2% FBS, 1% Sodium Bicarbonate, 25 mM Hepes and 1% Penicillin-Streptomycin) and 50 μl of each of the dilutions 1/10 to 1/10^−8 were added onto a 96-well plate, in 6 replicates. HeLa Ohio cells at a cell density of 1×10^5 cells/ml in TCID50 media were then added to each well (150 μl per well). Some wells with cells alone (without sample) were included as control. […] The appearance of characteristic cytopathic effect, compared to control cells, was then assessed by observation of the plates on an inverted microscope and the virus titres were subsequently calculated by the method of Reed and Muench.

Sequence of Leishmania donovani (Ld) N-myristoyl transferase (D0AB09 entry or part of it): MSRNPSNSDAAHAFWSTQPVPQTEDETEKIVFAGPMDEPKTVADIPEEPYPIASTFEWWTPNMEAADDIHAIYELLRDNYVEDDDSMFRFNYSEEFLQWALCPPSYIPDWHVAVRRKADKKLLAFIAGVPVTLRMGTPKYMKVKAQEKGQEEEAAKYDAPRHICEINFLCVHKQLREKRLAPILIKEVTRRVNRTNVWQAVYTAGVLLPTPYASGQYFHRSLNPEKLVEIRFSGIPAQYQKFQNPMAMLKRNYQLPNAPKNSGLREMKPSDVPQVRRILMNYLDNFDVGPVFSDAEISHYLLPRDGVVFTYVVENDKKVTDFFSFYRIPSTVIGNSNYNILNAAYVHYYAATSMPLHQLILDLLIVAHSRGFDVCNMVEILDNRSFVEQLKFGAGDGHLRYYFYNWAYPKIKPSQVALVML

Cc1nn(C)c(C)c1CCOc1cc(F)ccc1-c1ccc2c(c1)c(CN)nn2C (as salt: salt) [Example 31, (5-(4-fluoro-2-(2-(1,3,5-trimethyl-1H-pyrazol-4-yl)ethoxy)phenyl)-1-methyl-1H-indazol-3-yl)methanamine]
melting point: 230 to 233 °C

Cc1nn(C)c(C)c1CCOc1cc(F)ccc1-c1ccc2[nH]nc(CN(C)C)c2c1 [Example 7]
IC50 [1]: 1 to 100 nM

CN(C)Cc1n[nH]c2ccc(-c3ccc(F)cc3OCCc3cccnc3)cc12 [Example 8]
IC50 [1]: 1 to 100 nM
IC50 [2]: 1 to 100 nM

Cc1nn(C)c(C)c1CCOc1c(F)cccc1-c1ccc2c(c1)c(CN(C)C)nn2C [Example 30]
EC50 (HeLa and/or BL-41 cells): 1 to 100 nM
cell viability of inhibitor-treated but uninfected cells (HeLa Ohio cells): without affecting cell viability
HRV16 production (virus-induced cytopathic effect, MTS) (HRV16 [3]): inhibit HRV16 production in a dose-dependent manner
EC50 (HRV16 [4]): 10 to 100 nM

CNCc1nn(C)c2ccc(-c3cccc(F)c3OCCc3c(C)nn(C)c3C)cc12 [Example 35, 1-(5-(3-fluoro-2-(2-(1,3,5-trimethyl-1H-pyrazol-4-yl)ethoxy)phenyl)-1-methyl-1H-indazol-3-yl)-N-methylmethanamine]
cell viability of inhibitor-treated but uninfected cells (HeLa Ohio cells): without affecting cell viability
HRV16 production (virus-induced cytopathic effect, MTS) (HRV16 [3]): inhibit HRV16 production in a dose-dependent manner
EC50 (HRV16 [4]): 10 to 100 nM

Cc1nn(C)c(C)c1CCOc1c(-c2ccc3c(c2)c(CN(C)C)nn3C)ccc(F)c1F [Example 49]
EC50 (HeLa and/or BL-41 cells): 1 to 100 nM
cell viability of inhibitor-treated but uninfected cells (HeLa Ohio cells): without affecting cell viability
HRV16 production (virus-induced cytopathic effect, MTS) (HRV16 [3]): inhibit HRV16 production in a dose-dependent manner
EC50 (HRV16 [4]): 10 to 100 nM

CNCc1nn(C)c2ccc(-c3ccc(F)c(F)c3OCCc3c(C)nn(C)c3C)cc12 [Example 50, 1-(5-(3,4-difluoro-2-(2-(1,3,5-trimethyl-1H-pyrazol-4-yl)ethoxy)phenyl)-1-methyl-1H-indazol-3-yl)-N-methylmethanamine]
EC50 (HeLa and/or BL-41 cells): 1 to 100 nM
cell viability of inhibitor-treated but uninfected cells (HeLa Ohio cells): without affecting cell viability
HRV16 production (virus-induced cytopathic effect, MTS) (HRV16 [3]): inhibit HRV16 production in a dose-dependent manner
EC50 (HRV16 [4]): 10 to 100 nM
